Paper PMC6018403 (Frontiers in Pharmacology, 2018)
Read-outs that look alike come from different tables or passages of the source.

Experiment: Multi-component pharmacokinetic study of GQD, GQD-GC and single herb extracts in rats (plasma, LC/MS/MS)
Type: in vivo, Sprague-Dawley rats
Description: Male Sprague-Dawley rats (220–250 g) were used for PK study, and the details were described in Supplemental Data. All procedures were in accordance with the National Institutes of Health Guide for the Care and Use of Laboratory Animals.
For PK study of GQD and its component herbs, rats were randomly divided into six groups (n = 10 for each group) before oral administration.
All blood samples were immediately centrifuged at 6,000 rpm (4°C) for 20 min to obtain plasma. The plasma samples were stored at −80°C.
A Finnigan TSQ Quantum triple quadrupole mass spectrometer was connected to a Surveyor HPLC via ESI interface (ThermoFisher). High purity nitrogen was used as the sheath and auxiliary gas; Ultra-high purity argon was used as the collision gas (1.5 mTorr). Q1 and Q3 quadrupoles were set at unit resolution. […] The column temperature was 40°C. The mobile phase consisted of acetonitrile containing 2% (v/v) methanol (A) and water containing 0.1% (v/v) formic acid (B). […] An aliquot of 5 μL was injected for analysis. UV spectra were obtained by scanning from 200 to 400 nm. The mass spectrometer was operated in the (+)-ESI mode. The optimized parameters were as follows: sheath gas (N2), 50 arb; auxiliary gas (N2), 5 arb; spray voltage, 4.0 kV; capillary temperature, 330°C; collision energy, see Table S1. Analytes were detected in the selected reaction monitoring (SRM) mode. Data were processed by Xcalibur 2.0.7 software (ThermoFisher).
LC/MS/MS calibration and quantitation data were processed with Xcalibur 2.0.7 software (ThermoFisher). The maximal plasma concentrations (Cmax) and their time of occurrence (Tmax) were obtained directly from the measured data. Other pharmacokinetic parameters were calculated by non-compartment or compartment models using WinNonlin® software (v6.1, Pharsight). Unless otherwise stated, results were expressed as the mean ± SD. Statistical significance in differences of the means was determined by Student's t–test, with a significance level of P < 0.05.
Herbal materials and extracts.
The four component herbs, Puerariae Lobatae Radix (Ge-Gen, GG), Scutellariae Radix (Huang-Qin, HQ), Coptidis Rhizoma (Huang-Lian, HL), and Glycyrrhizae Radix et Rhizoma Praeparata cum Melle (Gan-Cao, GC) were purchased from Tianheng Pharmacy. GQD was prepared by decocting the four component herbs […]
pre-extraction of Ge-Gen using 200 mL of water for 0.5 h. The decoctions were combined, filtered, and concentrated in vacuum at 50 °C. GQD-GC was prepared using the same procedure, except that Gan-Cao was removed from the formula. Final concentration of the GQD-GC extract was equivalent to 1.0 g of the crude drugs per mL. For single herb extracts, the herbs were decocted in 8-fold volume of water for […]
Final concentrations of the extracts were 1.0 g/mL for Ge-Gen, and 0.5 g/mL for Huang-Qin, Huang-Lian and […]
For pharmacokinetic study, Male Sprague-Dawley rats (220-250 g) were obtained from the Laboratory Animal Center of Peking University Health Science Center. The […]
The rats had free access to tap water and soy-free custom diet (Ke’ao Xieli Co.). All procedures were in accordance with the National Institutes of Health Guide for the Care and Use of Laboratory Animals […]
Experimental details for the PK study
1. Preparation of internal standard solution, calibration standard solutions, and quality control solutions […]
internal standard solution. Reference standard compounds were dissolved in the internal standard solution to prepare individual stock solutions (1.0 mg/mL). These […]
each compound. The standard solution was then serially diluted to obtain calibration […]
Quality control stock solutions were prepared at three concentration levels as high QC (HQC), middle QC (MQC), and low QC (LQC), based on linear ranges of the analytes.
2.1. Sample preparation for pharmacokinetic study
The calibration standard and quality control solutions for pharmacokinetic study were […]

[1] = male, Sprague-Dawley, rat, in vivo, po, 2.36 g/kg
[2] = male, Sprague-Dawley, rat, in vivo, po, 18.9 g/kg
[3] = male, Sprague-Dawley, rat, in vivo, po, 18.9 g/kg, AUClast
[4] = male, Sprague-Dawley, rat, plasma, po, 18.9 g/kg, GQD group: rats, oral GQD extract 18.9 g/kg, plasma, read-out: AUClast
[5] = male, Sprague-Dawley, rat, GQD group: rats, oral GQD extract 18.9 g/kg, plasma, read-out: Cmax
[6] = male, Sprague-Dawley, rat, GQD group: rats, oral GQD extract 18.9 g/kg, plasma, read-out: T1/2 (converted)
[7] = male, Sprague-Dawley, rat, GQD group: rats, oral GQD extract 18.9 g/kg, plasma, read-out: Tmax
[8] = male, Sprague-Dawley, rat, in vivo, po, 3.54 g/kg
[9] = male, Sprague-Dawley, rat, in vivo, po, 16.5 g/kg

O=c1c(-c2ccc(O)cc2)coc2cc(O[C@@H]3O[C@H](CO)[C@@H](O)[C@H](O)[C@H]3O)ccc12 [Compound 1, Daidzin]
AUC(0-t) (male, Sprague-Dawley, rat, in vivo, po, 9.45 g/kg, GG (Ge-Gen) group: rats, oral extract 9.45 g/kg, plasma, read-out: AUClast): 290 ± 42.2 ng·h/mL
AUC(0-t) (male, Sprague-Dawley, rat, in vivo, po, 9.45 g/kg, Ge-Gen group: rats, oral 9.45 g/kg, plasma, read-out: AUClast): 290 ± 42.2 ng·h/mL
AUC(0-t) (male, Sprague-Dawley, rat, in vivo, po, 16.5 g/kg, GQD-GC group (GQD without Gan-Cao): rats, oral 16.5 g/kg, plasma, read-out: AUClast): 282 ± 61.6 ng·h/mL
AUC(0-t) (male, Sprague-Dawley, rat, in vivo, po, 18.9 g/kg, GQD group: rats, oral GQD extract 18.9 g/kg, plasma, read-out: AUClast): 346 ± 30.3 ng·h/mL
AUC(0-t) (male, Sprague-Dawley, rat, in vivo, po, 18.9 g/kg, GQD group: rats, oral GQD 18.9 g/kg (1.5-fold of clinical dosage), plasma, read-out: AUClast): > 300 ng·h/mL
Cmax (male, Sprague-Dawley, rat, in vivo, GG (Ge-Gen) group: rats, oral extract 9.45 g/kg, plasma, read-out: Cmax): 58 ± 0.77 ng/mL
half-life (male, Sprague-Dawley, rat, in vivo, GG (Ge-Gen) group: rats, oral extract 9.45 g/kg, plasma, read-out: T1/2 (converted)): 0.74 ± 0.33 h
Tmax (male, Sprague-Dawley, rat, in vivo, GG (Ge-Gen) group: rats, oral extract 9.45 g/kg, plasma, read-out: Tmax): 0.38 ± 0.04 h
Cmax (male, Sprague-Dawley, rat, in vivo, GQD group: rats, oral GQD extract 18.9 g/kg, plasma, read-out: Cmax): 27.4 ± 3.34 ng/mL
half-life (male, Sprague-Dawley, rat, in vivo, GQD group: rats, oral GQD extract 18.9 g/kg, plasma, read-out: T1/2 (converted)): 3.96 ± 1.02 h
Tmax (male, Sprague-Dawley, rat, in vivo, GQD group: rats, oral GQD extract 18.9 g/kg, plasma, read-out: Tmax): 0.88 ± 0.11 h
Cmax (male, Sprague-Dawley, rat, in vivo, GQD-GC group (GQD without Gan-Cao): rats, oral 16.5 g/kg, plasma, read-out: Cmax): 52.4 ± 2.21 ng/mL
half-life (male, Sprague-Dawley, rat, in vivo, GQD-GC group (GQD without Gan-Cao): rats, oral 16.5 g/kg, plasma, read-out: T1/2 (converted)): 1.63 ± 0.14 h
Tmax (male, Sprague-Dawley, rat, in vivo, GQD-GC group (GQD without Gan-Cao): rats, oral 16.5 g/kg, plasma, read-out: Tmax): 0.58 ± 0.24 h
bioavailability in the GQD group compared with the Ge-Gen group (rats, oral): higher

O=C1C[C@@H](c2ccc(O[C@@H]3O[C@H](CO)[C@@H](O)[C@H](O)[C@H]3O)cc2)Oc2cc(O)ccc21 [Compound 26, liquiritin]
Cmax [1]: 18.6 ± 7.53 ng/mL
T1/2 [1]: 7.84 ± 0.38 h
Tmax [1]: 1.34 ± 3 h
AUC(0-t) (male, Sprague-Dawley, rat, in vivo, po, 2.36 g/kg, AUClast): 237 ± 92.4 ng·h/mL
AUClast [2]: 416.94 ± 210.31 ng·h/mL
Cmax [2]: 20.8 ± 1.86 ng/mL
Tmax [2]: 2.5 ± 4.76 h
half-life [2]: 12.1 ± 1.16 h
AUC(0-t) [3]: > 300 ng·h/mL
plasma concentrations, effect of GQD compared with Gan-Cao (rat, in vivo, po): improved

O=c1c(-c2ccc(O)cc2)coc2c(C3OC(COC4OCC(O)(CO)C4O)C(O)C(O)C3O)c(O)cc(O)c12 (centres unmarked) [Compound 6, genistein 8-C-apiofuranosyl(1,6)glucoside]
AUC(0-t) (male, Sprague-Dawley, rat, plasma, po, 9.45 g/kg, GG (Ge-Gen) group: rats, oral extract 9.45 g/kg, plasma, read-out: AUClast): 168 ± 33.6 ng·h/mL
AUC(0-t) (male, Sprague-Dawley, rat, plasma, po, 16.5 g/kg, GQD-GC group (GQD without Gan-Cao): rats, oral 16.5 g/kg, plasma, read-out: AUClast): 96.3 ± 105 ng·h/mL
AUC(0-t) [4]: 98.8 ± 24.8 ng·h/mL
Cmax (male, Sprague-Dawley, rat, GG (Ge-Gen) group: rats, oral extract 9.45 g/kg, plasma, read-out: Cmax): 11.3 ± 1.8 ng/mL
half-life (male, Sprague-Dawley, rat, GG (Ge-Gen) group: rats, oral extract 9.45 g/kg, plasma, read-out: T1/2 (converted)): 5.57 ± 3.48 h
Tmax (male, Sprague-Dawley, rat, GG (Ge-Gen) group: rats, oral extract 9.45 g/kg, plasma, read-out: Tmax): 0.73 ± 0.3 h
Cmax [5]: 11.3 ± 3.32 ng/mL
half-life [6]: 6.77 ± 3.44 h
Tmax [7]: 8.39 ± 0.23 h
Cmax (male, Sprague-Dawley, rat, GQD-GC group (GQD without Gan-Cao): rats, oral 16.5 g/kg, plasma, read-out: Cmax): 12.1 ± 7.87 ng/mL
half-life (male, Sprague-Dawley, rat, GQD-GC group (GQD without Gan-Cao): rats, oral 16.5 g/kg, plasma, read-out: T1/2 (converted)): 2.15 ± 1.7 h
Tmax (male, Sprague-Dawley, rat, GQD-GC group (GQD without Gan-Cao): rats, oral 16.5 g/kg, plasma, read-out: Tmax): 1.56 ± 1.53 h

O=C(/C=C/c1ccc(O)cc1)c1ccc(O)cc1O [Compound 28, isoliquiritigenin]
AUC(0-t) (male, Sprague-Dawley, rat, plasma, po, 2.36 g/kg, GC (Gan-Cao) group: rats, oral extract 2.36 g/kg, plasma, read-out: AUClast): 1.28 ± 0.03 ng·h/mL
AUC(0-t) [4]: 39.2 ± 8.9 ng·h/mL
Cmax (male, Sprague-Dawley, rat, GC (Gan-Cao) group: rats, oral extract 2.36 g/kg, plasma, read-out: Cmax): 1.16 ± 0.52 ng/mL
half-life (male, Sprague-Dawley, rat, GC (Gan-Cao) group: rats, oral extract 2.36 g/kg, plasma, read-out: T1/2 (converted)): 0.28 ± 0.08 h
Tmax (male, Sprague-Dawley, rat, GC (Gan-Cao) group: rats, oral extract 2.36 g/kg, plasma, read-out: Tmax): 0.41 ± 0.47 h
Cmax [5]: 2.81 ± 0.87 ng/mL
half-life [6]: 3.55 ± 0.08 h
Tmax [7]: 5.33 ± 0.89 h

c1c2c(cc3c1OCO3)-c1cc3ccc4c(c3c[n+]1CC2)OCO4 [Compound 21, coptisine]
increase of AUClast in GQD group compared with the Huang-Lian group (male, Sprague-Dawley, rat, in vivo, po): 49.1%
Cmax [8]: 5.33 ± 1.35 ng/mL
Tmax [8]: 0.68 ± 0.65 h
half-life [8]: 3.83 ± 1.34 h
AUC(0-t) (male, Sprague-Dawley, rat, in vivo, po, 3.54 g/kg, AUClast): 73.2 ± 21.2 ng·h/mL
Cmax [9]: 8.39 ± 1.3 ng/mL
Tmax [9]: 0.69 ± 0.76 h
half-life [9]: 3.87 ± 0.27 h
AUC(0-t) (male, Sprague-Dawley, rat, in vivo, po, 16.5 g/kg, AUClast): 167 ± 24.4 ng·h/mL
AUClast [2]: 109.2 ± 73.23 ng·h/mL
Cmax [2]: 6.56 ± 4.03 ng/mL
Tmax [2]: 0.74 ± 0.32 h
half-life [2]: 5.2 ± 1.37 h
AUC(0-t) [3]: > 100 ng·h/mL
